Among the test systems are EKVX NSCLC; HT29 colon; K-562 leukemia; NCI-H522 lung; NCI/ADR-RES ovarian; OVCAR-4 ovarian; SK-MEL-5 melanoma; TK-10 renal; UACC-257 melanoma; UACC-62 melanoma.
Common to all, as to test: NCI tumour cell line growth inhibition, 48 h

Several values for one entry are separate records, joined by “and”; a condition that tells them apart may be missing. Identical values can stand only once.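 In this assay, cells in 96-well plates receive the compound at five concentrations for 48 hours. Endpoints are linearly interpolated between the surrounding concentrations. GI50: concentration for 50% inhibition of growth. TGI marks complete inhibition of growth.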

In the case of `COc1ccc(NC(=O)c2cccc(C3CCc4c(cc(OC)c(OC)c4OC)O3)c2)cc1` (centres undefined), the GI50 with EKVX NSCLC is 3.28 µM; with HT29 colon, 3.17 µM; in the test with K-562 leukemia, 0.654 µM; in the test with NCI-H522 lung, 2.29 µM; in the test on NCI/ADR-RES ovarian, 2.81 µM; in the test on OVCAR-4 ovarian, 3.14 µM. The GI50 in the test with SK-MEL-5 melanoma is 1.67 µM; in the test with TK-10 renal, 3.75 µM; in the test with UACC-257 melanoma, 3.72 µM; in the test on UACC-62 melanoma, 2.05 µM. Moreover, the TGI in the test with EKVX NSCLC is more than 100 µM; in the test on HT29 colon, more than 100 µM; in the test on K-562 leukemia, more than 100 µM; in the test with NCI-H522 lung, 7.37 µM; in the test on NCI/ADR-RES ovarian, more than 100 µM; in the test with OVCAR-4 ovarian it was more than 100 µM. The TGI is 3.89 µM in the test on SK-MEL-5 melanoma, more than 100 µM with TK-10 renal, more than 100 µM with UACC-257 melanoma and more than 100 µM in the test with UACC-62 melanoma.
With `COc1ccc2nc3ccccc3c(NCc3ccccc3)c2c1`, the GI50 with EKVX NSCLC was 3.03 µM; in the test with HT29 colon it was 1.8 µM; in the test on K-562 leukemia, 2.43 µM; in the test on NCI-H522 lung it was 1.77 µM; in the test on NCI/ADR-RES ovarian it was 2.09 µM; in the test with OVCAR-4 ovarian, 2.37 µM. The GI50 is 1.76 µM in the test with SK-MEL-5 melanoma, 3.79 µM with TK-10 renal, 2.16 µM in the test on UACC-257 melanoma and 2.29 µM with UACC-62 melanoma. The TGI in the test on EKVX NSCLC worked out at 11.4 µM; in the test on HT29 colon, 6.23 µM; in the test on K-562 leukemia, 11.5 µM; in the test with NCI-H522 lung, 4.6 µM; in the test on NCI/ADR-RES ovarian, 6.69 µM; with OVCAR-4 ovarian it was 7.58 µM. Also, the TGI with SK-MEL-5 melanoma is 3.17 µM; with TK-10 renal, 13.1 µM; in the test with UACC-257 melanoma, 4.88 µM; with UACC-62 melanoma it was 6.05 µM.
`Cc1cn(C2CC(O)C(COC(N)=O)O2)c(=O)[nH]c1=O` (centres undefined): the TGI in the test on EKVX NSCLC, with HT29 colon, with K-562 leukemia, in the test on NCI-H522 lung, with NCI/ADR-RES ovarian and in the test with OVCAR-4 ovarian was more than 100 µM in each case. The TGI with SK-MEL-5 melanoma, in the test on TK-10 renal, in the test on UACC-257 melanoma and in the test with UACC-62 melanoma was more than 100 µM in each case.
Turning to `Nc1no[n+]([O-])c1-c1nnc2c(n1)-c1ccccc1C2=O`, the GI50 in the test on EKVX NSCLC is 2.29 µM; with HT29 colon, 2.41 µM; with K-562 leukemia, 1.26 µM; with NCI-H522 lung it was 2.02 µM; in the test with NCI/ADR-RES ovarian it was 3.73 µM; with OVCAR-4 ovarian, 1.42 µM. Further, the GI50 with SK-MEL-5 melanoma was 1.66 µM; in the test with TK-10 renal, 13.9 µM; in the test with UACC-257 melanoma, 1.93 µM; in the test on UACC-62 melanoma, 4.47 µM. Besides, the TGI with EKVX NSCLC was found to be 5.86 µM; in the test on HT29 colon, 6.74 µM; in the test on K-562 leukemia, 4.54 µM; in the test on NCI-H522 lung, 5.87 µM; in the test with NCI/ADR-RES ovarian, 32.3 µM; with OVCAR-4 ovarian, 2.74 µM. Also, the TGI was determined as 3.13 µM with SK-MEL-5 melanoma, 27.6 µM in the test with TK-10 renal, 3.98 µM with UACC-257 melanoma and 15.7 µM in the test with UACC-62 melanoma.
As to `NCCCNc1nc2ccccc2c2c(=O)c3cc(F)cc(Cl)c3sc12`, the GI50 with EKVX NSCLC is 1.56 µM; in the test on HT29 colon it was 1.75 µM; in the test on K-562 leukemia, 1.78 µM; in the test on NCI-H522 lung, 1.76 µM; with NCI/ADR-RES ovarian, 1.73 µM; with OVCAR-4 ovarian, 1.82 µM. For the same compound, the GI50 in the test on SK-MEL-5 melanoma was 6.5 µM; in the test on TK-10 renal, 1.91 µM; with UACC-257 melanoma, 3.29 µM; in the test with UACC-62 melanoma, 1.82 µM. Further, the TGI in the test on EKVX NSCLC was 3.07 µM; with HT29 colon, 3.29 µM; in the test on K-562 leukemia, 4.1 µM; with NCI-H522 lung, 3.68 µM; with NCI/ADR-RES ovarian it was 3.46 µM; in the test on OVCAR-4 ovarian, 3.63 µM. Besides, the TGI with SK-MEL-5 melanoma was found to be 20.3 µM; in the test on TK-10 renal it was 3.39 µM; in the test with UACC-257 melanoma it was 11.2 µM; with UACC-62 melanoma, 3.52 µM.
Take `NC(Cc1c[nH]c2cccc(F)c12)C(=O)O` (centres undefined): the GI50 is 778 µM with EKVX NSCLC; 36.5 µM and 300 µM with HT29 colon; 68.5 µM and 269 µM in the test with K-562 leukemia; 27.7 µM and 176 µM in the test on NCI-H522 lung; 63.9 µM and 418 µM in the test on NCI/ADR-RES ovarian; 20.1 µM and 154 µM in the test on SK-MEL-5 melanoma. Besides, the GI50 was 1220 µM in the test on TK-10 renal, 1380 µM in the test on UACC-257 melanoma and 582 µM in the test on UACC-62 melanoma. Further, the TGI was more than 4500 µM in the test on EKVX NSCLC; 2620 µM with HT29 colon; more than 4500 µM with K-562 leukemia; 74.5 µM and 729 µM in the test on NCI-H522 lung; 2360 µM with NCI/ADR-RES ovarian; more than 4500 µM in the test on OVCAR-4 ovarian. Also, the TGI in the test on SK-MEL-5 melanoma is 54.7 µM and 458 µM; in the test with TK-10 renal it was more than 4500 µM; in the test with UACC-257 melanoma, more than 4500 µM; with UACC-62 melanoma, 1990 µM.
For `NS(=O)(=O)c1cc(C(=O)O)c(Cl)c([N+](=O)[O-])c1Cl`, the TGI in the test with EKVX NSCLC, with HT29 colon, in the test with K-562 leukemia, with NCI-H522 lung, with NCI/ADR-RES ovarian and in the test with OVCAR-4 ovarian was more than 100 µM each time. The TGI in the test on SK-MEL-5 melanoma, in the test on TK-10 renal, with UACC-257 melanoma and in the test on UACC-62 melanoma was more than 100 µM in each case.
Take `C=C1C(=O)O[C@H]2[C@H]1CC/C(COC(=O)N[C@H](Cc1c[nH]c3ccccc13)C(=O)OC)=C\CC[C@@]1(C)O[C@@H]21`: the GI50 in the test with EKVX NSCLC is 1.8 µM; with HT29 colon, 2.46 µM; with K-562 leukemia it was 1.72 µM; in the test on NCI-H522 lung it was 1.52 µM; in the test on NCI/ADR-RES ovarian it was 10.6 µM; in the test on OVCAR-4 ovarian, 6.44 µM. Further, the GI50 in the test on SK-MEL-5 melanoma was 7.03 µM; in the test with TK-10 renal, 2.1 µM; with UACC-257 melanoma, 2.89 µM; in the test on UACC-62 melanoma it was 1.88 µM. Besides, the TGI with EKVX NSCLC turned out to be 5.66 µM; in the test on HT29 colon, 7.92 µM; with K-562 leukemia, 8.29 µM; in the test on NCI-H522 lung, 3.22 µM; with NCI/ADR-RES ovarian it was 37.9 µM; in the test on OVCAR-4 ovarian, 20.4 µM. The TGI is 20.5 µM with SK-MEL-5 melanoma, 5.07 µM with TK-10 renal, 8.74 µM in the test on UACC-257 melanoma and 4.4 µM in the test on UACC-62 melanoma.

Source of the values: PubChem BioAssay (NCI).
